According to patent US12570655B2, “Cysteine covalent modifiers of AKT1 and uses thereof” (Terremoto Biosciences, Inc., priority 2023, dated 2026):
pIC50: −log10 of the molar value. Read-outs that look alike come from different tables or passages of the source.

What was measured:
Type in all cases: cell-based
[1] = test system: LAPC4 prostate cancer cells; experiment: Antiproliferative effects in LAPC4 cells (CellTiter Glo); conditions: LAPC4 cells (AKT1 E17K allele), read-out: LAPC4 proliferation IC50
How it was run: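 Growth inhibition is gauged by intracellular ATP content, measured with CellTiter Glo 72 h after compound addition to 1,000 seeded cells per well. IC50 derives from a Hill equation fit.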

AKT1 WT = target: T1, AKT1 WT (Homo sapiens, UniProt P31749); experiment: Live cell AKT1 WT target engagement by NanoBRET competitive probe displacement; conditions: HEK293 cells transfected with kinase-NanoLuciferase fusion, 2 h at 37° C.
T1 construct: expressed in transfected cells; host or cells: HEK293
How it was run: (§1)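 Steps: overnight transfection of HEK293 with kinase-NanoLuc plasmids; addition of compound dilutions and tracer (~EC50); 2 h incubation at 37 °C; substrate plus extracellular luciferase inhibitor; luminescence at 460 and 600 nm. IC50 values came from fitting the BRET ratio to a Hill equation.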

AKT2 = target: T2, AKT2 (Homo sapiens, UniProt P31751); experiment: Live cell AKT2 target engagement by NanoBRET competitive probe displacement; conditions: HEK293 cells transfected with kinase-NanoLuciferase fusion, 2 h at 37° C.
T2 construct: expressed in transfected cells; host or cells: HEK293
How it was run: as §1

AKT1 E17K = target: T3, AKT1 E17K (Homo sapiens, UniProt P31749, E17K); experiment: Live cell AKT1 E17K target engagement by NanoBRET competitive probe displacement; conditions: HEK293 cells transfected with kinase-NanoLuciferase fusion, 2 h at 37° C.
T3 construct: expressed in transfected cells; host or cells: HEK293
How it was run: as §1

T1 sequence (P31749 whole entry, the tested form may be a part): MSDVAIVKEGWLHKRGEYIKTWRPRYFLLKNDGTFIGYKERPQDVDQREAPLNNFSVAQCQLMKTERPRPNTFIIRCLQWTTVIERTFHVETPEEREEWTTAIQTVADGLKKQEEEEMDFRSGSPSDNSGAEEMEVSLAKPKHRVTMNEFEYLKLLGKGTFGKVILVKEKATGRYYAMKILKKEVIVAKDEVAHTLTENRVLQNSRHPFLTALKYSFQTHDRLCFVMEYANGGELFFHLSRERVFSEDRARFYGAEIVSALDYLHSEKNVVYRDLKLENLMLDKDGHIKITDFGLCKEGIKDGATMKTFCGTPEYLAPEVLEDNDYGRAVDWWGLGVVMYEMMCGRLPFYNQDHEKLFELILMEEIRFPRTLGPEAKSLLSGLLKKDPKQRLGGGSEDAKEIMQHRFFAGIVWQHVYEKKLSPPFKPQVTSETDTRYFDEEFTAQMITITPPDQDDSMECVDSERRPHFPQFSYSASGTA
T2 sequence (P31751 whole entry, the tested form may be a part): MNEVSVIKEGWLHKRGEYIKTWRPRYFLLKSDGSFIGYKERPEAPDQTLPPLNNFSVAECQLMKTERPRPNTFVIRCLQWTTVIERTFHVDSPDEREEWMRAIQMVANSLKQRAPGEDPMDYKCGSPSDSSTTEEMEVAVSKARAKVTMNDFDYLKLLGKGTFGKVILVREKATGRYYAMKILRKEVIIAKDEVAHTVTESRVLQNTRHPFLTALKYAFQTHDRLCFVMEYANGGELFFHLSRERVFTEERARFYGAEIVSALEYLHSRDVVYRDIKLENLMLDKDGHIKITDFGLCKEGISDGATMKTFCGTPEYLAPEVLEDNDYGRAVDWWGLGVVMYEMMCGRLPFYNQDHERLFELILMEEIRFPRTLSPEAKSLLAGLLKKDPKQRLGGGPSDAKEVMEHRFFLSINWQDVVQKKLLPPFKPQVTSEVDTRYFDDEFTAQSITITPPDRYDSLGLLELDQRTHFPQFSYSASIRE
T3 sequence (P31749 whole entry E17K, the tested form may be a part): as the sequence (P31749 whole entry, the tested form may be a part) above, with E17K counted along it

SMILES	pIC50 ([1]; 72 h)	pIC50 (AKT1 WT)	pIC50 (AKT2)	pIC50 (AKT1 E17K)	pIC50 ([1]; Homo sapiens, LAPC4, 72 h)
C=CC(=O)N1CCC(N[C@H]2CCc3cc(-n4c(-c5cccnc5N)nc5ccc(OC6CC6)nc54)ccc32)CC1 [Example 198, 1-(4-{[(1S)-5-[2-(2-aminopyridin-3-yl)-5-cyclopropoxyimidazo[4,5-b]pyridin-3-yl]-2,3-dihydro-1H-inden-1-yl]amino}piperidin-1-yl)prop-2-en-1-one]		6.08	7.57	7.80	6.34
C=CC(=O)N1CCC(N[C@@H]2c3ccc(-n4c(-c5cccnc5N)nc5ccc(-n6ccc(F)n6)nc54)cc3CC2F)C[C@@H]1C (single isomer, unassigned) [Example 273, 1-((2S,4*)-4-(((1R,2*)-5-(2-(2-aminopyridin-3-yl)-5-(3-fluoro-1H-pyrazol-1-yl)-3H-imidazo[4,5-b]pyridin-3-yl)-2-fluoro-2,3-dihydro-1H-inden-1-yl)amino)-2-methylpiperidin-1-yl)prop-2-en-1-one]	6.87	6.80	7.55	7.94	
C=CC(=O)N1CCC(NC2CCc3cc(-n4c(-c5cccnc5N)nc5ccc(C6CC6(F)F)nc54)ccc32)CC1 (single isomer, unassigned) [Example 245, 1-(4-(((*)-5-(2-(2-aminopyridin-3-yl)-5-((*)-2,2-difluorocyclopropyl)-3H-imidazo[4,5-b]pyridin-3-yl)-2,3-dihydro-1H-inden-1-yl)amino)piperidin-1-yl)prop-2-en-1-one]	6.28	6.15	6.45	7.42	
C=CC(=O)N1C2CCC1CC(N[C@H]1CCc3cc(-n4c(-c5cccnc5N)nc5ccc(-n6cccn6)nc54)ccc31)C2 (stereo partly drawn) [Example 27, 1-(3-(((S)-5-(2-(2-aminopyridin-3-yl)-5-(1H-pyrazol-1-yl)-3H-imidazo[4,5-b]pyridin-3-yl)-2,3-dihydro-1H-inden-1-yl)amino)-8-azabicyclo[3.2.1]octan-8-yl)prop-2-en-1-one]		7.40	6.72	6.97	6.37
C=CC(=O)N1CCC(N[C@H]2CCc3cc(-n4c(-c5ccccc5)nc5ccc(C6CC6)nc54)ccc32)CC1 [Example 246, 1-(4-{[(1S)-5-{5-cyclopropyl-2-phenylimidazo[4,5-b]pyridin-3-yl}-2,3-dihydro-1H-inden-1-yl]amino}piperidin-1-yl)prop-2-en-1-one]		5.60	6.15	7.18	5.80
C=CC(=O)N1CCC(N[C@H]2CCc3cc(-n4c(-c5cccnc5N)nc5ccc(N6CCC(F)(F)CC6)nc54)ccc32)CC1 [Example 186, 1-(4-{[(1S)-5-[2-(2-aminopyridin-3-yl)-5-(4,4-difluoropiperidin-1-yl)imidazo[4,5-b]pyridin-3-yl]-2,3-dihydro-1H-inden-1-yl]amino}piperidin-1-yl)prop-2-en-1-one]		6.06	6.02	7.51	6.10

Results, then the compound that gave them:

pIC50 ([1]; 72 h)	pIC50 (AKT1 WT)	pIC50 (AKT2)	pIC50 (AKT1 E17K)	pIC50 ([1]; Homo sapiens, LAPC4, 72 h)	SMILES
7.60	8.13	7.29	8.05		C#CC1CC(N[C@H]2CCc3cc(-n4c(-c5cccnc5N)nc5ccc(-n6cccn6)nc54)ccc32)CCN1C(=O)C=C (single isomer, unassigned) [Example 113, 1-((2*,4*)-4-(((S)-5-(2-(2-aminopyridin-3-yl)-5-(1H-pyrazol-1-yl)-3H-imidazo[4,5-b]pyridin-3-yl)-2,3-dihydro-1H-inden-1-yl)amino)-2-ethynylpiperidin-1-yl)prop-2-en-1-one]
	6.69	7.73	8.25	7.11	C=CC(=O)N1CCC(N[C@H]2CCc3cc(-n4c(-c5ccccc5F)nc5ccc(-n6cccn6)nc54)ccc32)CC1 [Example 241, 1-(4-{[(1S)-5-[2-(2-fluorophenyl)-5-(pyrazol-1-yl)imidazo[4,5-b]pyridin-3-yl]-2,3-dihydro-1H-inden-1-yl]amino}piperidin-1-yl)prop-2-en-1-one]
6.50	6.55	7.10	7.80		C=CC(=O)N1CCN(NC2CCc3cc(-n4c(-c5cccnc5N)nc5ccc(-n6ccc(F)n6)nc54)ccc32)CC1 (single isomer, unassigned) [Example 200, 1-(4-{[(1*)-5-[2-(2-aminopyridin-3-yl)-5-(3-fluoropyrazol-1-yl)imidazo[4,5-b]pyridin-3-yl]-2,3-dihydro-1H-inden-1-yl]amino}piperazin-1-yl)prop-2-en-1-one]
	7.22	5.90	6.45	6.30	C=CC(=O)N1CCC(N[C@@H]2c3ccc(-n4c(-c5cccnc5N)nc5ccc(-n6cccn6)nc54)cc3CC2F)C[C@H]1C (single isomer, unassigned) [Example 143, 1-((2R,4*)-4-(((1R,2*)-5-(2-(2-aminopyridin-3-yl)-5-(1H-pyrazol-1-yl)-3H-imidazo[4,5-b]pyridin-3-yl)-2-fluoro-2,3-dihydro-1H-inden-1-yl)amino)-2-methylpiperidin-1-yl)prop-2-en-1-one]
5.77	6.83	6.06	6.26		C=CC(=O)N1CCC(N[C@H]2CCc3cc(-n4c(-c5cccnc5N)nc5ccc(-n6cccn6)nc54)ccc32)C(O)C1 (single isomer, unassigned) [Example 141, 1-[(3*,4*)-4-{[(1S)-5-[2-(2-aminopyridin-3-yl)-5-(pyrazol-1-yl)imidazo[4,5-b]pyridin-3-yl]-2,3-dihydro-1H-inden-1-yl]amino}-3-hydroxypiperidin-1-yl]prop-2-en-1-one]
	7.11	7.58	8.24	7.16	C=CC(=O)N1CCC(N[C@H]2CCc3cc(-n4c(-c5cccnc5N)nc5ccc(-n6ccc(C7CC7)n6)nc54)ccc32)CC1 [Example 208, (S)-1-(4-((5-(2-(2-aminopyridin-3-yl)-5-(3-cyclopropyl-1H-pyrazol-1-yl)-3H-imidazo[4,5-b]pyridin-3-yl)-2,3-dihydro-1H-inden-1-yl)amino)piperidin-1-yl)prop-2-en-1-one]
	7.07	5.85	6.36	5.94	C=CC(=O)N1CC2CCC(C1)C2N[C@H]1CCc2cc(-n3c(-c4cccnc4N)nc4ccc(-n5cccn5)nc43)ccc21 (stereo partly drawn) [Example 14, 1-(8-{[(1S)-5-[2-(2-aminopyridin-3-yl)-5-(pyrazol-1-yl)imidazo[4,5-b]pyridin-3-yl]-2,3-dihydro-1H-inden-1-yl]amino}-3-azabicyclo[3.2.1]octan-3-yl)prop-2-en-1-one]
7.43	8.04	7.43	8.09		C=CC(=O)N1CCC(N[C@H]2CCc3cc(-n4c(-c5cccnc5N)nc5ccc(-n6cccn6)nc54)ccc32)c2ccccc21 (single isomer, unassigned) [Example 127, 1-[(4*)-4-{[(1S)-5-[2-(2-aminopyridin-3-yl)-5-(pyrazol-1-yl)imidazo[4,5-b]pyridin-3-yl]-2,3-dihydro-1H-inden-1-yl]amino}-3,4-dihydro-2H-quinolin-1-yl]prop-2-en-1-one]
